In patent US9079913B2, “Spiro-oxindole MDM2 antagonists” (The Regents of the University of Michigan, priority 2009, dated 2015):
Where two headings read alike, the source gives them in different places.

Legend:
[1] = target: recombinant human His-tagged MDM2 protein (residues 1-118) (Homo sapiens (Human), UniProt Q00987); experiment: Fluorescence-polarization MDM2 binding assay; conditions: Table 19A; FP binding assay; read-out: MDM2 IC50;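 also: fluorescence polarization read after three hours of incubation in potassium phosphate buffer containing bovine gamma globulin and Triton X-100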
recombinant human His-tagged MDM2 protein (residues 1-118), sequence (Q00987 1-118): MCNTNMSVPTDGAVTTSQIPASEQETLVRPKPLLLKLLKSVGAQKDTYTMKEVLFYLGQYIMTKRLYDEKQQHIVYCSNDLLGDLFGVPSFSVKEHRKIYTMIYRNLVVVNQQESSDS

[2] = tested on: Isogenic HCT-116 colon cancer cell lines; experiment: cells; type: cell-based; conditions: Homo sapiens, cell growth;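 also: cells grown in 96-well plates in McCoy's 5A medium with 10% FBS, exposed to compound for 4 days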
Procedure: Cells were seeded in 96-well flat bottom cell culture plates at a density of 2−3×10^3 cells/well with compounds and incubated for 4 days.

[3] = tested on: cancer cell lines with wild-type p53 / mutated or deleted p53 (ATCC); experiment: Cell growth assay (WST-8), other cancer cell lines; type: cell-based; conditions: Homo sapiens
[4] = In vitro microsomal stability, rat; type: in vitro ADME
[5] = HCT-116, read-out: HCT-116 (p53-/-) IC50, Table 19A, HCT-116 p53-/-
[6] = HCT-116, read-out: HCT-116 (p53 wild-type) IC50, Table 19A, HCT-116 p53 wild-type
[7] = LNCaP, Table 19A, LNCAP cells, p53 wild-type, cell growth, read-out: LNCAP (p53 wild-type) IC50
[8] = PC-3, Table 19A, PC-3 cells, deleted p53, cell growth, read-out: PC-3 (deleted p53) IC50
[9] = SJSA-1, Table 19A, SJSA-1 cells, p53 wild-type, cell growth, read-out: SJSA-1 (p53 wild-type) IC50

| SMILES | IC50 [1] [µM] | IC50 [2, 5] [µM] | IC50 [2, 6] [µM] | IC50 [3, 7] [µM] | IC50 [3, 8] [µM] | IC50 [3, 9] [µM] | % of compound remaining when incubated in rat liver microsomes at indicated time (min) ([4]; 0 min) [%] | % of compound remaining when incubated in rat liver microsomes at indicated time (min) ([4]; 4 min) [%] | % of compound remaining when incubated in rat liver microsomes at indicated time (min) ([4]; 6 min) [%] | % of compound remaining when incubated in rat liver microsomes at indicated time (min) ([4]; 10 min) [%] | % of compound remaining when incubated in rat liver microsomes at indicated time (min) ([4]; 15 min) [%] | % of compound remaining when incubated in rat liver microsomes at indicated time (min) ([4]; 30 min) [%] | % of compound remaining when incubated in rat liver microsomes ([4]; Table 17, 0 min) [%] | % of compound remaining when incubated in rat liver microsomes ([4]; Table 17, 4 min) [%] | % of compound remaining when incubated in rat liver microsomes ([4]; Table 17, 6 min) [%] | % of compound remaining when incubated in rat liver microsomes ([4]; Table 17, 10 min) [%] | % of compound remaining when incubated in rat liver microsomes ([4]; Table 17, 15 min) [%] | % of compound remaining when incubated in rat liver microsomes ([4]; Table 17, 30 min) [%] | microsomal stability (in words) ([4]; rat liver microsomes) |
| --- | --- | --- | --- | --- | --- | --- | --- | --- | --- | --- | --- | --- | --- | --- | --- | --- | --- | --- | --- |
| CC(C)(C)C[C@H]1N[C@@H](C(=O)NCCCN2CCCC2)[C@H](c2cccc(Cl)c2)[C@@]12C(=O)Nc1cc(Cl)c(F)cc12 [MI-519-38] | < 1 | 5.3 ± 1.6 | 1.4 ± 0.6 | 1 ± 0.3 | 3.1 ± 0.4 | 2.1 ± 0.1 | 100 | 91.5 | 85.4 | 82.4 | 80.8 | 73.2 | – | – | – | – | – | – | – |
| CNC(=O)[C@@H]1N[C@H](CC(C)(C)C)[C@]2(C(=O)Nc3cc(Cl)c(F)cc32)[C@H]1c1cccc(Cl)c1 [MI-519-40] | < 1 | 18.5 ± 5.5 | 1 ± 0.1 | 1 ± 0.1 | 14.6 ± 2.7 | 1.3 ± 0.3 | – | – | – | – | – | – | 100 | 84.2 | 70.1 | 59.6 | 58.7 | 57.6 | improved microsomal stability over MI-219 |
| CC(C)(C)C[C@H]1N[C@@H](C(N)=O)[C@H](c2cccc(Cl)c2)[C@@]12C(=O)Nc1cc(Cl)c(F)cc12 [MI-519-41] | < 1 | 17.9 ± 2.2 | 1 ± 0.3 | 1.2 | 14.9 ± 1.1 | 1.3 ± 0.4 | – | – | – | – | – | – | 100 | 84.2 | 80.4 | 66.1 | 55.4 | 42.9 | – |
| CC(C)(C)C[C@H]1N[C@@H](C(=O)NCCCN2CCCCC2)[C@H](c2cccc(Cl)c2F)[C@@]12C(=O)Nc1cc(Cl)ccc12 [MI-519-44] | < 10 | 2.8 ± 0.7 | 0.8 | 1.3 ± 0.2 | 2.6 ± 0.1 | 0.9 ± 0.1 | – | – | – | – | – | – | 100 | 85.6 | 74.7 | 66.4 | 61.2 | 42.5 | – |
| CC(C)(C)C[C@H]1N[C@@H](C(=O)NCC[C@](C)(O)CO)[C@H](c2cccc(Cl)c2F)[C@@]12C(=O)Nc1cc(Cl)ccc12 [MI-789] | < 3 | > 10 | < 3 | < 3 | > 10 | < 3 | – | – | – | – | – | – | – | – | – | – | – | – | – |
| CC(C)(C)C[C@H]1N[C@@H](C(=O)NCC[C@@](C)(O)CO)[C@H](c2cccc(Cl)c2F)[C@@]12C(=O)Nc1cc(Cl)ccc12 [MI-790] | < 3 | > 10 | < 3 | < 3 | > 10 | < 3 | – | – | – | – | – | – | – | – | – | – | – | – | – |
| O=C(NC1CCC(O)CC1)[C@@H]1N[C@H](CC2CCCC2)[C@]2(C(=O)Nc3cc(Cl)ccc32)[C@H]1c1cccc(Cl)c1F (stereo partly drawn) [MI-791] | < 3 | > 10 | < 3 | < 3 | > 10 | < 3 | – | – | – | – | – | – | – | – | – | – | – | – | – |
| O=C(NC1CCC(O)CC1)[C@@H]1N[C@H](C=C2CCCC2)[C@]2(C(=O)Nc3cc(Cl)ccc32)[C@H]1c1cccc(Cl)c1F (stereo partly drawn) [MI-792] | < 5 | > 20 | < 10 | < 10 | > 20 | < 10 | – | – | – | – | – | – | – | – | – | – | – | – | – |
| CC(C)(C)C[C@H]1N[C@@H](C(=O)NC2CCC(OC(=O)CN)CC2)[C@H](c2cccc(Cl)c2F)[C@@]12C(=O)Nc1cc(Cl)ccc12 (stereo partly drawn) [MI-901] | < 1 | > 10 | < 3 | < 3 | > 5 | < 3 | – | – | – | – | – | – | – | – | – | – | – | – | – |
| CC(C)[C@H](N)C(=O)OC1CCC(NC(=O)[C@@H]2N[C@H](CC(C)(C)C)[C@]3(C(=O)Nc4cc(Cl)ccc43)[C@H]2c2cccc(Cl)c2F)CC1 (stereo partly drawn) [MI-902] | < 3 | 5.9 | < 3 | < 3 | 4 | < 3 | – | – | – | – | – | – | – | – | – | – | – | – | – |
| CC(C)C[C@H](N)C(=O)OC1CCC(NC(=O)[C@@H]2N[C@H](CC(C)(C)C)[C@]3(C(=O)Nc4cc(Cl)ccc43)[C@H]2c2cccc(Cl)c2F)CC1 (stereo partly drawn) [MI-903] | < 3 | 12.1 | < 3 | < 3 | 3.5 | < 3 | – | – | – | – | – | – | – | – | – | – | – | – | – |
| CC[C@H](C)[C@H](N)C(=O)OC1CCC(NC(=O)[C@@H]2N[C@H](CC(C)(C)C)[C@]3(C(=O)Nc4cc(Cl)ccc43)[C@H]2c2cccc(Cl)c2F)CC1 (stereo partly drawn) [MI-904] | < 1 | 6.1 | < 3 | < 3 | 3.1 | < 3 | – | – | – | – | – | – | – | – | – | – | – | – | – |
| CC(C)[C@@H](N)C(=O)OC1CCC(NC(=O)[C@@H]2N[C@H](CC(C)(C)C)[C@]3(C(=O)Nc4cc(Cl)ccc43)[C@H]2c2cccc(Cl)c2F)CC1 (stereo partly drawn) [MI-905] | < 1 | 8 | < 3 | < 3 | 3.9 | < 3 | – | – | – | – | – | – | – | – | – | – | – | – | – |
| C[C@@H](N)C(=O)OC1CCC(NC(=O)[C@@H]2N[C@H](CC(C)(C)C)[C@]3(C(=O)Nc4cc(Cl)ccc43)[C@H]2c2cccc(Cl)c2F)CC1 (stereo partly drawn) [MI-906] | < 1 | 9.1 | < 3 | < 3 | 3.6 | < 3 | – | – | – | – | – | – | – | – | – | – | – | – | – |
| CC(C)(C)C[C@H]1N[C@@H](C(=O)NC2CCC(OC(=O)C(C)(C)N)CC2)[C@H](c2cccc(Cl)c2F)[C@@]12C(=O)Nc1cc(Cl)ccc12 (stereo partly drawn) [MI-907] | < 1 | 7 | < 3 | < 3 | 3 | < 3 | – | – | – | – | – | – | – | – | – | – | – | – | – |
| CC(C)(C)C[C@H]1N[C@@H](C(=O)NC2CCC(OC(=O)[C@H](Cc3ccccc3)NC(=O)OC(C)(C)C)CC2)[C@H](c2cccc(Cl)c2F)[C@@]12C(=O)Nc1cc(Cl)ccc12 (stereo partly drawn) [MI-908] | > 10 | > 30 | 5.3 | 4.3 | ~30 | 22.5 | – | – | – | – | – | – | – | – | – | – | – | – | – |
| CC(C)(C)C[C@H]1N[C@@H](C(=O)NC2CN(CC(C)(C)O)C2)[C@H](c2cccc(Cl)c2F)[C@@]12C(=O)Nc1cc(Cl)ccc12 [MI-909] | < 1 | > 5 | < 3 | < 3 | > 5 | < 3 | – | – | – | – | – | – | – | – | – | – | – | – | – |
| CC(C)(C)C[C@H]1N[C@@H](C(=O)NC2CCC(OC(=O)[C@@H](N)Cc3ccccc3)CC2)[C@H](c2cccc(Cl)c2F)[C@@]12C(=O)Nc1cc(Cl)ccc12 (stereo partly drawn) [MI-910] | < 1 | 9.8 | < 3 | < 3 | 7 | < 3 | – | – | – | – | – | – | – | – | – | – | – | – | – |
| CC(C)NC(=O)N1CC(NC(=O)[C@@H]2N[C@H](CC(C)(C)C)[C@]3(C(=O)Nc4cc(Cl)ccc43)[C@H]2c2cccc(Cl)c2F)C1 [MI-911] | < 3 | > 10 | < 5 | < 5 | > 10 | < 5 | – | – | – | – | – | – | – | – | – | – | – | – | – |
| CC(C)(C)C[C@H]1N[C@@H](C(=O)NC2CN(CCO)C2)[C@H](c2cccc(Cl)c2F)[C@@]12C(=O)Nc1cc(Cl)ccc12 [MI-912] | < 3 | > 10 | < 5 | < 5 | > 5 | < 5 | – | – | – | – | – | – | – | – | – | – | – | – | – |
| CC(C)(C)C[C@H]1N[C@@H](C(=O)NC2CN(C(=O)NC3CCCCC3)C2)[C@H](c2cccc(Cl)c2F)[C@@]12C(=O)Nc1cc(Cl)ccc12 [MI-913] | < 3 | 8.8 | < 5 | < 5 | 4.9 | < 5 | – | – | – | – | – | – | – | – | – | – | – | – | – |
| CC(=O)OC(C)(C)C(=O)N1CC(NC(=O)[C@@H]2N[C@H](CC(C)(C)C)[C@]3(C(=O)Nc4cc(Cl)ccc43)[C@H]2c2cccc(Cl)c2F)C1 [MI-914] | < 1 | > 10 | < 3 | < 3 | > 5 | < 3 | – | – | – | – | – | – | – | – | – | – | – | – | – |
| CC(=O)N1CC(NC(=O)[C@@H]2N[C@H](CC(C)(C)C)[C@]3(C(=O)Nc4cc(Cl)ccc43)[C@H]2c2cccc(Cl)c2F)C1 [MI-915] | < 3 | > 30 | < 10 | < 10 | > 30 | < 10 | – | – | – | – | – | – | – | – | – | – | – | – | – |
| CCCCNC(=O)N1CC(NC(=O)[C@@H]2N[C@H](CC(C)(C)C)[C@]3(C(=O)Nc4cc(Cl)ccc43)[C@H]2c2cccc(Cl)c2F)C1 [MI-916] | < 0.1 | > 5 | < 3 | < 3 | > 5 | < 5 | – | – | – | – | – | – | – | – | – | – | – | – | – |
| CCN(CC)C(=O)N1CC(NC(=O)[C@@H]2N[C@H](CC(C)(C)C)[C@]3(C(=O)Nc4cc(Cl)ccc43)[C@H]2c2cccc(Cl)c2F)C1 [MI-917] | < 1 | > 10 | < 3 | < 3 | > 5 | – | – | – | – | – | – | – | – | – | – | – | – | – | – |
